# Tests used:
# [1] = system: B-CLL cells; assay: Biosynthesis of LTB4 by intact B-CLL cells (HPLC analysis); type: cell-based, human; conditions: intact cells preincubated with diamide (100 μM, two minutes), then A23187 (1 μM) and arachidonic acid (40 μM); mean of six experiments; without diamide 2.6±0.8
# Protocol: pre-incubated (intact cells) with diamide (100 μM) for two minutes, followed by stimulation with A23187 (1 μM) and arachidonic acid (40 μM).
# 10×10^6 cells were suspended in 1 mL PBS and pre-incubated for two minutes with/without azodicarboxylic acid bis(dimethylamide), abbreviated diamide, (100 μM) prior to stimulation with arachidonic acid (40 μM) and/or calcium ionophore A23187 (1 μM). The cells were stimulated for five minutes at 37° C. and the incubations were terminated with 1 mL methanol.
# After addition of 0.5 ml PBS and the internal standard PGB1 (100 pmol) to the samples, the cells were centrifuged (2500 rpm, 5 min). The supernatant was subsequently subjected to solid phase extraction on Chromabond C18 columns (200 mg, Macherey & Nagel). The methanol eluate was analysed on Waters Alliance 2695 reverse phase HPLC and detected with Waters PDA 996. Methanol:water:trifiuoroacetic acid (70:30:0.007, v/v) was used as mobile phase at a flow rate of 1.2 mL/min. Qualitative analysis was performed by comparison of retention times of synthetic standards and quantitative determinations were performed by computerized integration of the area of eluted peaks.
# [2] = system: malignant cells from patients with acute or chronic myelogenous leukemia; conditions: cited from earlier work
# [3] = system: B-CLL cells; assay: Flow cytometry (FACS) analysis of CD23, CD54 and CD150 expression in CD40L activated B-CLL cells; type: cell-based, human; conditions: for effect on CD40-induced increased expression of CD23, CD54 and CD150: 100 nM, 96 hrs
# Protocol: FIG. 4 depicts the effects of leukotriene biosynthesis inhibitors on the expression of CD23, CD54 and CD150 in CD40L activated B-CLL. Purified B-CLL cells were co-cultured with either L cells or CD40L-L cells in the absence or presence of MK886 (10^−7 M), BWA4C (10^−7 M), and/or LTB4 (10^−7 M) for 96 hrs. When inhibitors were used, B-CLL cells were pre-treated with the inhibitor for 30 min prior to co-culturing with L cells or CD40L-L cells. B-CLL cells were collected and analysed by FACS with antibodies against CD23, CD54 or CD150. The figure depicts one typical experiment out of six. […] Cultured (described above) B-CLL cells were collected (without the plastic attached L cells) and used for FACS detection. Surface marker expression was detected by indirect immunofluorescence. One million cells/sample were washed in cold PBS containing 1% FCS and 0.1% sodium azide and then exposed to the relevant antibodies. The cells were washed and incubated with the RPE conjugated secondary antibody. All incubations were done at 4° C. Samples were run on a Becton Dickinson FACScan flow cytometer (Becton Dickinson, Mountain View, Calif.). The CellQuest software (Becton Dickinson) was used both for acquisition and analysis of the samples. Ten thousand events were collected on a FACScan flow cytometer, and the results were analysed using CellQuest (Becton Dickinson) software. Only the viable cells were considered for analysis based on their light scatter (FSC/SSC) characteristics. The following antibodies were used: MAb MHM-6 (anti-CD23, from Dr. M. Rowe, University of Wales, Cardiff, Wales, UK), MAb LB-2 (anti-CD54, from E. A. Clark, University of Washington, Seattle, Wash.), MAb IPO-3 (anti-SLAM, kind gift from S. Sidorenko, Acad. of Science of Ukraine, Kiev, Ukraine) and RPE conjugated rabbit anti-mouse Ig F(ab′)2 (Dako, Copenhagen, Denmark) were used as secondary antibody.
# [4] = system: human lung cancer cells; conditions: cited from earlier work
# [5] = system: serum proteins; conditions: Can. J. Physiol. Pharmacol. 67, 456 (1989); cited from earlier work
# [6] = system: B-CLL cells; assay: DNA synthesis (3H-thymidine incorporation) in B-CLL cells activated by CD40L-L cells, 96 hr co-culture; type: cell-based, human
# Protocol: FIG. 3 depicts the effects of leukotriene biosynthesis inhibitors on CD40L-induced thymidine incorporation in B-CLL cells. B-CLL cells (2×10^5) were co-cultured with either irradiated L cells alone (L), irradiated CD40L-L cells or irradiated CD40L-L cells plus indicated inhibitor for 96 hr. When inhibitors were used, B-CLL cells were pre-treated with the inhibitor for 30 min prior co-culturing with L cells or CD40L-L cells. The inhibitors used were: […]. The control result reported in the Figure represents B-CLL cells co-cultured with irradiated CD40L-L cells alone. ^3H-thymidine (1 μCi) was present for the final eight hours. Activation of B-CLL cells with CD40L-L treatment led to between 3580 and 15369 cpm (^3H-thymidine) incorporation (control) in different experiments. This was set as 100% in each experiment. […] Student's t-test was used to calculate statistics i.e. control vs. control plus indicated compound(s) (** P<0.01, *** P<0.001). B-cells were isolated from patients suffering with B-CLL or B-prolymphocytic leukemia (B-PLL) who had not received chemotherapy within during the previous six weeks (see Table 1 below). Peripheral blood samples were obtained after informed consent and with local ethics committee approval. Blood samples were Ficoll-Isopaque purified and washed twice in phosphate buffered saline (PBS). After that, cells were either frozen in PBS with 50% human AB serum and 10% dimethylsulfoxide or analyzed fresh. Frozen cell samples were thawed and washed in ice cold fetal calf serum and subsequently in PBS before analysis. Cells from two patients were used twice, both freshly isolated cells and after freezing with similar results. […]. The purity of the isolated cells was estimated by flow cytometric analysis (with FACS Calibur, Becton Dickinson, Mountain View, Calif.). Morphological analysis was performed after staining with May-Grunewald/Giemsa solution. The purity of B-CLL and B-PLL cells was >98%. Purified B-CLL cells were cultured in RPMI 1640 medium, supplemented with 10% FCS, 2 mM L-glutamine, 100 U/mL penicillin and 100 μg/mL streptomycin and incubated at […] in an atmosphere of 5% CO2. 2×10^5 of B-CLL cells were seeded in 200 μL medium in 96-well plates. B-CLL cells were pretreated with MK-886 (a specific FLAP inhibitor) (10^−6 to 10^−9 M) or BWA4C (a specific 5-LO inhibitor) (10^−7 to 10^−9 M) for 30 min, before co-culturing with irradiated (15,000 Rad) CD40L expressing L (CD40L-L) cells or control L (L) cells in the presence of inhibitors. LTB4 (10^−7 M) was present in the indicated cultures. Each sample was represented by triplicates. 1 μCi ^3H-thymidine was present in the wells for the final eight […] of the 96 hr cultures. The cells were harvested onto glass fibre filter and radioactivity was measured in a liquid scintillation counter.
smiles,measurement,setting,value
"CN(C)C(=O)/N=N/C(=O)N(C)C [diamide, Azodicarboxylic acid bis(dimethylamide)]",production of LTB4,[1],33.5±1.2 pmol/10^6 cells
CC(C)c1ccc2c(c1)c(SC(C)(C)C)c(CC(C)(C)C(=O)O)n2Cc1ccc(Cl)cc1 [MK-886],antiproliferative effects,[2],antiproliferative effects
same,"effect on CD40-induced increased expression of CD23, CD54 and CD150",[3],markedly counteracted
same,antiproliferative effects,[4],antiproliferative effects
same,binding to serum proteins,[5],relatively high binding
same,effect on DNA synthesis induced by CD40-ligand stimulation,[6]; 100 nM,markedly inhibited DNA synthesis
same,inhibition at 0.1 µM,"[6]; Homo sapiens, 100 nM inhibitor, CD40L-L stimulated B-CLL cells, 96 hr, read-out: inhibitory action on thymidine incorporation",38%
same,inhibition at 1 µM,"[6]; Homo sapiens, 1 μM inhibitor, CD40L-L stimulated B-CLL cells, 96 hr, read-out: inhibitory action on thymidine incorporation",46%
CCCCC/C=C\C[C@@H](O)/C=C/C=C/C=C\[C@@H](O)CCCC(=O)O [LTB4],"reversal of the inhibitory effect of the inhibitors (MK-886, BWA4C) on antigen expression",[3]; 150 nM,almost completely reversed
same,"effect alone on the expression of CD23, CD54 and CD150",[3]; without inhibitor,did not cause any significant effect
same,reversal of the inhibitory action of 100 nM BWA4C on thymidine incorporation,"[6]; exogenous addition, 150 nM",almost completely reversed
same,reversal of the inhibitory effect of MK-886 on thymidine incorporation,"[6]; exogenously added, 150 nM",almost completely reversed
same,"effect on CD40-induced thymidine incorporation, alone","[6]; final concentration 150 nM, no inhibitor",did not amplify
CC(=O)N(O)C/C=C/c1cccc(Oc2ccccc2)c1 [BWA4C],"effect on CD40-induced increased expression of CD23, CD54 and CD150",[3],markedly counteracted
same,effect on thymidine incorporation,[6]; 10 nM,significant inhibitory effect
same,potency to block DNA synthesis compared with MK-886,[6]; FIG. 3B,even more potent inhibitor than MK-886

# — patent publication US20080081835A1, “Use of Ltb4 Inhibitors for the Treatment of B-Cell Leukemias and Lymphomas” (priority 2004, published 2008)
